From PubChem BioAssay (NCI)
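How tested: cells in 96-well plates exposed to compound for 48 hours at five concentrations. Definition used: TGI = concentration required for complete inhibition of growth.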

Key:
Experiment in all cases: NCI-60 cell line screen, 48 h
SF-268 CNS = system: SF-268 CNS
CAKI-1 renal = system: CAKI-1 renal
UO-31 renal = system: UO-31 renal
M19-MEL melanoma = system: M19-MEL melanoma
XF 498 CNS = system: XF 498 CNS
ACHN renal = system: ACHN renal
SF-539 CNS = system: SF-539 CNS
NCI-H226 lung = system: NCI-H226 lung
M14 melanoma = system: M14 melanoma
K-562 leukemia = system: K-562 leukemia
SNB-19 CNS = system: SNB-19 CNS
KM12 colon = system: KM12 colon
HT29 colon = system: HT29 colon
RPMI-8226 leukemia = system: RPMI-8226 leukemia
EKVX NSCLC = system: EKVX NSCLC
SNB-78 CNS = system: SNB-78 CNS
A498 renal = system: A498 renal
HOP-92 NSCLC = system: HOP-92 NSCLC
CCRF-CEM leukemia = system: CCRF-CEM leukemia
HOP-62 NSCLC = system: HOP-62 NSCLC
KM20L2 colon = system: KM20L2 colon
NCI-H460 lung = system: NCI-H460 lung
DLD-1 colon = system: DLD-1 colon
SN12C renal = system: SN12C renal
UACC-62 melanoma = system: UACC-62 melanoma
NCI-H522 lung = system: NCI-H522 lung
SNB-75 CNS = system: SNB-75 CNS
IGROV1 ovarian = system: IGROV1 ovarian
SR leukemia = system: SR leukemia
HL-60(TB) leukemia = system: HL-60(TB) leukemia
A549 NSCLC = system: A549 NSCLC
COLO 205 colon = system: COLO 205 colon
U251 CNS = system: U251 CNS
HCT-116 colon = system: HCT-116 colon
HOP-18 NSCLC = system: HOP-18 NSCLC
DMS 273 small cell lung = system: DMS 273 small cell lung
DMS 114 small cell lung = system: DMS 114 small cell lung
SF-295 CNS = system: SF-295 CNS
SK-OV-3 ovarian = system: SK-OV-3 ovarian
NCI-H23 lung = system: NCI-H23 lung
MOLT-4 leukemia = system: MOLT-4 leukemia
SK-MEL-5 melanoma = system: SK-MEL-5 melanoma
UACC-257 melanoma = system: UACC-257 melanoma
OVCAR-3 ovarian = system: OVCAR-3 ovarian
LOX IMVI melanoma = system: LOX IMVI melanoma
OVCAR-4 ovarian = system: OVCAR-4 ovarian
OVCAR-5 ovarian = system: OVCAR-5 ovarian
SK-MEL-2 melanoma = system: SK-MEL-2 melanoma
HCC-2998 colon = system: HCC-2998 colon
OVCAR-8 ovarian = system: OVCAR-8 ovarian
TK-10 renal = system: TK-10 renal
SK-MEL-28 melanoma = system: SK-MEL-28 melanoma
786-0 renal = system: 786-0 renal
MALME-3M melanoma = system: MALME-3M melanoma
RXF 393 renal = system: RXF 393 renal
HCT-15 colon = system: HCT-15 colon
SW-620 colon = system: SW-620 colon
RXF-631 renal = system: RXF-631 renal
LXFL 529 NSCLC = system: LXFL 529 NSCLC

Question: `NC1=NC2=c3ccccc3=C(c3cnccn3)C2(c2cnccn2)c2ccccc21` (configuration not stated) was tested. Which TGI (SF-268 CNS) did it give?
Answer: > 100 µM

Question: And the TGI (CAKI-1 renal)?
Answer: > 100 µM

Question: What about the TGI (UO-31 renal) of the same compound?
Answer: > 100 µM

Question: What about the TGI (M19-MEL melanoma) of the same compound?
Answer: > 100 µM

Question: What about the TGI (XF 498 CNS) of the same compound?
Answer: > 100 µM

Question: And the TGI (ACHN renal)?
Answer: > 100 µM

Question: And the TGI (SF-539 CNS)?
Answer: > 100 µM

Question: And the TGI (NCI-H226 lung)?
Answer: > 100 µM

Question: And the TGI (M14 melanoma)?
Answer: > 100 µM

Question: And the TGI (K-562 leukemia)?
Answer: > 100 µM

Question: What about the TGI (SNB-19 CNS) of the same compound?
Answer: > 100 µM

Question: And the TGI (KM12 colon)?
Answer: > 100 µM

Question: And the TGI (HT29 colon)?
Answer: > 100 µM

Question: And the TGI (RPMI-8226 leukemia)?
Answer: > 100 µM

Question: And the TGI (EKVX NSCLC)?
Answer: > 100 µM

Question: What about the TGI (SNB-78 CNS) of the same compound?
Answer: > 100 µM

Question: What about the TGI (A498 renal) of the same compound?
Answer: 69.1 µM

Question: What about the TGI (HOP-92 NSCLC) of the same compound?
Answer: > 100 µM

Question: What about the TGI (CCRF-CEM leukemia) of the same compound?
Answer: > 100 µM

Question: And the TGI (HOP-62 NSCLC)?
Answer: > 100 µM

Question: What about the TGI (KM20L2 colon) of the same compound?
Answer: > 100 µM

Question: What about the TGI (NCI-H460 lung) of the same compound?
Answer: > 100 µM

Question: And the TGI (DLD-1 colon)?
Answer: > 100 µM

Question: What about the TGI (SN12C renal) of the same compound?
Answer: > 100 µM

Question: And the TGI (UACC-62 melanoma)?
Answer: > 100 µM

Question: And the TGI (NCI-H522 lung)?
Answer: > 100 µM

Question: And the TGI (SNB-75 CNS)?
Answer: > 100 µM

Question: And the TGI (IGROV1 ovarian)?
Answer: > 100 µM

Question: What about the TGI (SR leukemia) of the same compound?
Answer: > 100 µM

Question: What about the TGI (HL-60(TB) leukemia) of the same compound?
Answer: > 100 µM

Question: What about the TGI (A549 NSCLC) of the same compound?
Answer: > 100 µM

Question: What about the TGI (COLO 205 colon) of the same compound?
Answer: > 100 µM

Question: What about the TGI (U251 CNS) of the same compound?
Answer: > 100 µM

Question: What about the TGI (HCT-116 colon) of the same compound?
Answer: > 100 µM

Question: And the TGI (HOP-18 NSCLC)?
Answer: > 100 µM

Question: What about the TGI (DMS 273 small cell lung) of the same compound?
Answer: > 100 µM

Question: What about the TGI (DMS 114 small cell lung) of the same compound?
Answer: > 100 µM

Question: What about the TGI (SF-295 CNS) of the same compound?
Answer: > 100 µM

Question: What about the TGI (SK-OV-3 ovarian) of the same compound?
Answer: > 100 µM

Question: And the TGI (NCI-H23 lung)?
Answer: > 100 µM

Question: And the TGI (MOLT-4 leukemia)?
Answer: 95.8 µM

Question: What about the TGI (SK-MEL-5 melanoma) of the same compound?
Answer: > 100 µM

Question: And the TGI (UACC-257 melanoma)?
Answer: > 100 µM

Question: What about the TGI (OVCAR-3 ovarian) of the same compound?
Answer: 81.4 µM

Question: What about the TGI (LOX IMVI melanoma) of the same compound?
Answer: > 100 µM

Question: What about the TGI (OVCAR-4 ovarian) of the same compound?
Answer: > 100 µM

Question: And the TGI (OVCAR-5 ovarian)?
Answer: > 100 µM

Question: What about the TGI (SK-MEL-2 melanoma) of the same compound?
Answer: > 100 µM

Question: What about the TGI (HCC-2998 colon) of the same compound?
Answer: > 100 µM

Question: And the TGI (OVCAR-8 ovarian)?
Answer: > 100 µM

Question: What about the TGI (TK-10 renal) of the same compound?
Answer: > 100 µM

Question: And the TGI (SK-MEL-28 melanoma)?
Answer: > 100 µM

Question: What about the TGI (786-0 renal) of the same compound?
Answer: > 100 µM

Question: And the TGI (MALME-3M melanoma)?
Answer: > 100 µM

Question: And the TGI (RXF 393 renal)?
Answer: > 100 µM

Question: What about the TGI (HCT-15 colon) of the same compound?
Answer: > 100 µM

Question: What about the TGI (SW-620 colon) of the same compound?
Answer: > 100 µM

Question: With `O=C1CC(c2c(-c3ccccc3)[nH]c3ccccc23)C(=O)N1` (configuration not stated) as the compound, how does the TGI (CAKI-1 renal) read?
Answer: > 100 µM

Question: What about the TGI (UO-31 renal) of the same compound?
Answer: > 100 µM

Question: And the TGI (M19-MEL melanoma)?
Answer: > 100 µM

Question: What about the TGI (XF 498 CNS) of the same compound?
Answer: > 100 µM

Question: What about the TGI (ACHN renal) of the same compound?
Answer: > 100 µM

Question: And the TGI (SF-539 CNS)?
Answer: > 100 µM

Question: What about the TGI (NCI-H226 lung) of the same compound?
Answer: > 100 µM

Question: And the TGI (RXF-631 renal)?
Answer: > 100 µM

Question: What about the TGI (M14 melanoma) of the same compound?
Answer: > 100 µM

Question: What about the TGI (K-562 leukemia) of the same compound?
Answer: > 100 µM

Question: What about the TGI (KM12 colon) of the same compound?
Answer: > 100 µM

Question: What about the TGI (HT29 colon) of the same compound?
Answer: > 100 µM

Question: What about the TGI (RPMI-8226 leukemia) of the same compound?
Answer: > 100 µM

Question: And the TGI (EKVX NSCLC)?
Answer: > 100 µM

Question: What about the TGI (SNB-78 CNS) of the same compound?
Answer: > 100 µM

Question: And the TGI (A498 renal)?
Answer: > 100 µM

Question: And the TGI (CCRF-CEM leukemia)?
Answer: > 100 µM

Question: And the TGI (HOP-62 NSCLC)?
Answer: > 100 µM

Question: And the TGI (KM20L2 colon)?
Answer: > 100 µM

Question: What about the TGI (NCI-H460 lung) of the same compound?
Answer: > 100 µM

Question: And the TGI (DLD-1 colon)?
Answer: > 100 µM

Question: What about the TGI (UACC-62 melanoma) of the same compound?
Answer: > 100 µM

Question: And the TGI (SNB-75 CNS)?
Answer: > 100 µM

Question: What about the TGI (IGROV1 ovarian) of the same compound?
Answer: > 100 µM

Question: What about the TGI (HL-60(TB) leukemia) of the same compound?
Answer: > 100 µM

Question: What about the TGI (A549 NSCLC) of the same compound?
Answer: > 100 µM

Question: What about the TGI (LXFL 529 NSCLC) of the same compound?
Answer: > 100 µM

Question: And the TGI (U251 CNS)?
Answer: > 100 µM

Question: What about the TGI (HCT-116 colon) of the same compound?
Answer: > 100 µM

Question: And the TGI (DMS 273 small cell lung)?
Answer: > 100 µM

Question: And the TGI (DMS 114 small cell lung)?
Answer: > 100 µM

Question: And the TGI (SF-295 CNS)?
Answer: > 100 µM

Question: And the TGI (SK-OV-3 ovarian)?
Answer: > 100 µM

Question: What about the TGI (NCI-H23 lung) of the same compound?
Answer: > 100 µM

Question: And the TGI (MOLT-4 leukemia)?
Answer: > 100 µM

Question: And the TGI (SK-MEL-5 melanoma)?
Answer: > 100 µM

Question: What about the TGI (UACC-257 melanoma) of the same compound?
Answer: > 100 µM

Question: What about the TGI (OVCAR-3 ovarian) of the same compound?
Answer: > 100 µM

Question: What about the TGI (OVCAR-4 ovarian) of the same compound?
Answer: > 100 µM

Question: And the TGI (OVCAR-5 ovarian)?
Answer: > 100 µM

Question: What about the TGI (SK-MEL-2 melanoma) of the same compound?
Answer: > 100 µM

Question: What about the TGI (HCC-2998 colon) of the same compound?
Answer: > 100 µM

Question: And the TGI (OVCAR-8 ovarian)?
Answer: > 100 µM

Question: And the TGI (TK-10 renal)?
Answer: > 100 µM

Question: And the TGI (SK-MEL-28 melanoma)?
Answer: > 100 µM

Question: And the TGI (786-0 renal)?
Answer: > 100 µM

Question: And the TGI (MALME-3M melanoma)?
Answer: > 100 µM

Question: And the TGI (RXF 393 renal)?
Answer: > 100 µM

Question: What about the TGI (HCT-15 colon) of the same compound?
Answer: > 100 µM

Question: What about the TGI (SW-620 colon) of the same compound?
Answer: > 100 µM
